Results reported in paper PMC12444472, “BCI inhibits MKP3 by targeting the kinase-binding domain and disrupting ERK2 interaction” (The Journal of Biological Chemistry, 2025).
Residue numbers refer to the chain shown, from its start. Entries after “also recorded” stand apart in the source; their conditions may differ.

How the values were obtained:
Format in all cases: binding
[1] = target: T1, MKP3^CD (Homo sapiens, UniProt Q16828); assay: MST affinity measurement
T1 construct: ^15N-labeled MKP3^1–154, MKP3^14–152, MKP3^204–350; made in house; host or cells: Escherichia coli BL21(DE3)
T1 sequence (Q16828 204-350): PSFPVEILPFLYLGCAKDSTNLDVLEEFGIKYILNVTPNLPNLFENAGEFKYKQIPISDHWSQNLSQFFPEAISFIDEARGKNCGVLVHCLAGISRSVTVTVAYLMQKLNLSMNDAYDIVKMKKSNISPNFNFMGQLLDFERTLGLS
Protocol: (§1) MST measurements were performed using fluorescently labeled proteins and the inhibitor BCI (CAS: 1245792-51-1; TargetMol) on a Monolith instrument (NanoTemper Technologies). The RED–Tris–NTA second-generation dye was dissolved in MST buffer (20 mM Hepes, pH 7.4, 200 mM NaCl, and 0.05% Tween-20) to prepare a 5 μM stock solution. Fluorescent labeling of MKP proteins followed the standard protocol of the MO-L018 RED–Tris–NTA protein labeling kit, leveraging the His-tag–dye interaction.
(§2) The BCI compound was prepared as a 600 to 750 μM stock solution in MST buffer with 10% DMSO to enhance solubility, followed by a 16-point serial dilution. The diluted BCI solutions were thoroughly mixed with labeled MKP proteins (50 nM) at a 1:1 volume ratio, yielding a final volume of 10 μl. The reaction mixtures were incubated in the dark for 10 min at room temperature before being loaded into standard glass capillaries. Measurements were carried out on the Monolith instrument (100% LED, 40% IR laser power) with a 20 s laser on time. The normalized fluorescence values from triplicate measurements were averaged at each concentration and fitted to a 1:1 binding model using the KD model in MO.Affinity software (v3.0.5, NanoTemper Technologies) to determine the binding affinities between MKP proteins and the BCI inhibitor. […]

[2] = target: T2, MKP5^CD (Homo sapiens, UniProt Q9Y6W6); assay: MST affinity measurement
T2 construct: MKP5(320–467) (MKP5^CD); made in house; host or cells: Escherichia coli BL21(DE3)
T2 sequence (Q9Y6W6 320-467): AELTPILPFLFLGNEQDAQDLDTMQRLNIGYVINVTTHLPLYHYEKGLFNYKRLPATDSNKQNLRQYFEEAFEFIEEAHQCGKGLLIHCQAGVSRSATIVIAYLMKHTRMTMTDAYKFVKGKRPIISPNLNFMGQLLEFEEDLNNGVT
Protocol: as §1, §2

[3] = target: T3, MKP3 R83G (Homo sapiens, UniProt Q16828, R83G); assay: MST affinity of MKP3 mutant; settings: full-length mutant
T3 construct: MKP3(1–381) (MKP3^FL); made in house; host or cells: Escherichia coli BL21(DE3)
T3 sequence (Q16828 1-381 R83G): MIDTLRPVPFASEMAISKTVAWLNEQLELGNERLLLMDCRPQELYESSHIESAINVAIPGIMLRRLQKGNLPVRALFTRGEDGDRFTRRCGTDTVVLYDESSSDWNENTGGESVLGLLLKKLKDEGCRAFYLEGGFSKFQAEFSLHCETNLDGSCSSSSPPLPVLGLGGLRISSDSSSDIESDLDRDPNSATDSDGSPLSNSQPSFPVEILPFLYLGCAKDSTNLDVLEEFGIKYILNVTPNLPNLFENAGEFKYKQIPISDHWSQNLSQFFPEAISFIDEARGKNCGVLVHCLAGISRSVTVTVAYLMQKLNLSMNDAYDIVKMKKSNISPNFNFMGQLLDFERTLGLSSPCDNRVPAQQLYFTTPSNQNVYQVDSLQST
Protocol: as §1
(§3) The BCI compound was prepared as a 600 to 750 μM stock solution in MST buffer with 10% DMSO to enhance solubility, followed by a 16-point serial dilution. The diluted BCI solutions were thoroughly mixed with labeled MKP proteins (50 nM) at a 1:1 volume ratio, yielding a final volume of 10 μl. The reaction mixtures were incubated in the dark for 10 min at room temperature before being loaded into standard glass capillaries. Measurements were carried out on the Monolith instrument (100% LED, 40% IR laser power) with a 20 s laser on time. The normalized fluorescence values from triplicate measurements were averaged at each concentration and fitted to a 1:1 binding model using the KD model in MO.Affinity software (v3.0.5, NanoTemper Technologies) to determine the binding affinities between MKP proteins and the BCI inhibitor. The final reported Kd value represents the mean ± SD of Kd values obtained from three independent experiments, each fitted separately.
(§4) Figure S3. Affinity measurements of MKP3 mutants with BCI by MST. The binding affinities of full-length MKP3 mutants (E81G, R83G, R85G, R87G, and R89A) to BCI were determined by MST and are presented as mean ± SD (n = 3). Wild-type MKP3 (MKP3^WT) was included as a reference.

[4] = target: T4, MKP3 E81G (Homo sapiens, UniProt Q16828, E81G); assay: MST affinity of MKP3 mutant; settings: full-length mutant
T4 construct: MKP3(1–381) (MKP3^FL); made in house; host or cells: Escherichia coli BL21(DE3)
T4 sequence (Q16828 1-381 E81G): T3 sequence (Q16828 1-381 R83G) with E81G, G83R
Protocol: as §1, §3, §4

[5] = target: T5, MKP3 R89A (Homo sapiens, UniProt Q16828, R89A); assay: MST affinity of MKP3 mutant; settings: full-length mutant
T5 construct: MKP3(1–381) (MKP3^FL); made in house; host or cells: Escherichia coli BL21(DE3)
T5 sequence (Q16828 1-381 R89A): T3 sequence (Q16828 1-381 R83G) with G83R, R89A
Protocol: as §1, §3, §4

[6] = target: T6, MKP3 R85G (Homo sapiens, UniProt Q16828, R85G); assay: MST affinity of MKP3 mutant; settings: full-length mutant
T6 construct: MKP3(1–381) (MKP3^FL); made in house; host or cells: Escherichia coli BL21(DE3)
T6 sequence (Q16828 1-381 R85G): T3 sequence (Q16828 1-381 R83G) with G83R, R85G
Protocol: as §1, §3, §4

In the case of `O=C1/C(=C/c2ccccc2)C(NC2CCCCC2)c2ccccc21` (stereo not drawn) [BCI, (E)-2-benzylidene-3-(cyclohexylamino)-2,3-dihydro-1H-inden-1-one], the “binding by MST” value [1] is reported as “no detectable binding; also recorded: no binding was detected”, the “binding by MST” value [2] is reported as “no interaction was detected” and the “affinity for BCI compared with MKP3^WT” value [3] is reported as “significantly reduced affinity”. The “affinity for BCI compared with MKP3^WT” value [4] was “significantly reduced affinity”, the “affinity for BCI compared with MKP3^WT” value [5] was “significantly reduced affinity” and the “affinity for BCI compared with MKP3^WT” value [6] was “affinities similar to the WT”.
